Measurements from paper PMC6095608 (PLoS ONE, 2018).

Columns and labels:
MATE1 = target: T1, MATE1 (Homo sapiens, UniProt Q96FL8); assay: Inhibition of net [14C]-metformin uptake in MDCK-MATE1 cells; type: cell-based; details: 50 μM metformin, 5 min, pH 8.0, efavirenz 0.01–50 μM, read-out: IC50, inhibition of net MATE1-mediated [14C]-metformin uptake
T1 construct: expressed in transfected cells; host or cells: MDCKII (MDCK-MATE1)
Protocol: The singly-transfected OCT1, OCT2, MATE1 or control MDCK cells were seeded on 12-well plates at a density of 0.5 x 10^6 cells per well and cultivated in standard cultivation medium MEM (Gibco) + 10% FBS. Forty-eight hours after seeding, uptake experiments with radiolabelled metformin were performed. Cells were washed with 500 μl pre-warmed HBSS buffer of pH 7.4 (for OCTs) or 8.0 (for MATE1). Solutions of [^14C]-metformin (50 μM) in HBSS buffer of pH 7.4 or 8.0 with or without efavirenz were then added, and the resulting mixtures were left to stand for an accumulation period of 5 minutes. […] After the accumulation period, the solutions were aspirated and the cells were washed three times with 500 μl ice-cold HBSS buffer of pH 7.4 or 8.0 before being lysed with 0.02% sodium dodecyl sulphate (SDS). The intracellular accumulation of radioactivity was detected using a liquid scintillation counter (Tri-Carb 2910 TR Perkin Elmer), and protein concentrations in the cell lysates were measured by the BCA protein assay. Net transporter-mediated uptake was obtained by subtracting the accumulation of metformin in vector control cells from that in drug transporter-overexpressing cells.
A p value of ≤ 0.05 was considered statistically significant. […]

MRP transporters = tested on: MRP transporters; set-up: method as in PMID 17172311; details: only at 50 μM; cited from earlier work
parental MDCK cell line = assay: Calcein efflux assay in parental MDCK cells; type: cell-based, canine; details: calcein AM 0.25 μM, efavirenz 0.01–50 μM
Protocol: ABC transporter-expressing MDCK cells were seeded in 96-well plates at a density of 25 x 10^3 cells per well and cultivated in DMEM medium supplemented with 10% FBS. […] Intracellular fluorescence was then measured using excitation and emission wavelengths of 350 nm and 465 nm, respectively. […] Calcein fluorescence was measured using excitation and emission wavelengths of 496 nm and 516 nm, respectively.

MDCK cell lines = assay: Cytotoxicity seen in accumulation assays in MDCK cell lines; type: cell-based, canine; details: 100 μM, highest tested concentration, all accumulation assays and MDCK cell lines
Source text: Therefore, both relative and absolute IC50 values are reported (Fig 3).

[1] = set-up: method as in earlier work; details: clinical; lamivudine 150 mg twice daily with efavirenz 600 mg once daily; cited from earlier work
OCT2 = target: T2, OCT2 (Homo sapiens, UniProt O15244); assay: Transcellular transport assay across MDCK-OCT2 monolayers; type: cell-based; details: 10 μM efavirenz, 2 h
T2 construct: expressed in transfected cells; host or cells: MDCKII (MDCK-OCT2)
T2 sequence (O15244 1-555): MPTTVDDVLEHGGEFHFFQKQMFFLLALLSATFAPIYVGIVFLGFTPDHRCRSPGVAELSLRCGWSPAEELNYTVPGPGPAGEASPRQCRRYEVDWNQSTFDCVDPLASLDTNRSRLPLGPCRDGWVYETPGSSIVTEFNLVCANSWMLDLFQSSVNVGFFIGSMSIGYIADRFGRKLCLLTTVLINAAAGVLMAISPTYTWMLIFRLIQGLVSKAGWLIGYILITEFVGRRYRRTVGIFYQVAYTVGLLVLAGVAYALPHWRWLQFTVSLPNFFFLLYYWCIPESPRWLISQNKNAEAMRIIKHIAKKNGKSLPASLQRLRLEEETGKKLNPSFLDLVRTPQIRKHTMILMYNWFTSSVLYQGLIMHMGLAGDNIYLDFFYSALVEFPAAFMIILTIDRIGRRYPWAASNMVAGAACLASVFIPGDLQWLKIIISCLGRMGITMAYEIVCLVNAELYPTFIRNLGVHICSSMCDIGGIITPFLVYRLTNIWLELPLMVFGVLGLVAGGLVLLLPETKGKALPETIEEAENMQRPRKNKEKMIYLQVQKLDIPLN
Protocol: Transport experiments employing polarized monolayers of MDCK-OCT1, MDCK-OCT2, or MDCK-MATE1 cell lines as well as doubly transfected MDCK-OCT1-MATE1 or MDCK-OCT2-MATE1 lines and the non-transfected parental control MDCK-Co cells grown on Transwell 3402 cell culture inserts (3.0 μm pore size, 24 mm diameter; Costar, Corning, NY) were performed as described previously. The number of cells per well was 0.5 x 10^6 in all experiments, and the cells were incubated for 3 days to confluence in standard cultivation medium MEM (Gibco) + 10% FBS. After 3 days’ cultivation, medium was removed from both sides and the cells of the monolayer were washed using pre-warmed PBS. […] The pH of the medium on the basolateral side was 7.4, while that on the apical side was set to 6.0 (adjusted by adding HCl or NaOH, when necessary) to ensure optimal MATE1 transport activity. Cells were incubated at 37°C in 5% CO2 for 2 hours. At the end of the incubation period, 50 μl aliquots were sampled and the rest of the medium was immediately removed. The cells were then washed twice with ice-cold PBS, the membranes supporting cellular monolayers were excised, and the cells were dissolved in a 0.02% SDS solution. The radioactivity of the collected samples and lysed monolayers was measured by liquid scintillation counting (Tri-Carb 2910 TR Perkin Elmer), and the protein concentration of the cell lysates was quantified using the BCA protein assay. Transport rates were recorded in pmol per mg protein in the cellular monolayer.

T1 sequence (Q96FL8 whole entry): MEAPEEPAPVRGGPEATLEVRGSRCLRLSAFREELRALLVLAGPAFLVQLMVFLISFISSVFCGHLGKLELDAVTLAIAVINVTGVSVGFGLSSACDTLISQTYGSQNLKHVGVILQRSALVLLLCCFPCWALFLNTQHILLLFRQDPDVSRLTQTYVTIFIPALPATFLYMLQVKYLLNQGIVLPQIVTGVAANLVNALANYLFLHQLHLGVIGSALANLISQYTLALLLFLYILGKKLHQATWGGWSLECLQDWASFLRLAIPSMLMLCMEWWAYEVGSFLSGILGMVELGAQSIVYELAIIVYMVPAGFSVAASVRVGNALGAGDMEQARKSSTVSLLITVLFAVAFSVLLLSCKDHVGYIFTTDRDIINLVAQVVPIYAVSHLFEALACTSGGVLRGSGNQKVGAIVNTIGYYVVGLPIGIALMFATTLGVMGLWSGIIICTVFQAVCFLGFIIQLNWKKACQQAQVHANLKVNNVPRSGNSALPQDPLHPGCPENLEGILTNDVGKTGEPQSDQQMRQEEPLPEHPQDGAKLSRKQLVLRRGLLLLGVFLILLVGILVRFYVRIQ

## O=C1Nc2ccc(Cl)cc2[C@@](C#CC2CC2)(C(F)(F)F)O1 [efavirenz, Efavirenz]
MATE1
  IC50: 3.85 µM
MRP transporters
  Inhibition of MRP transporters: inhibit
Parental MDCK cell line
  Inhibition of calcein efflux from parental MDCK cells: not
MDCK cell lines
  Cytotoxicity in MDCK cell lines: cytotoxicity
[1]
  Effect on lamivudine AUC: no effect
  Effect on lamivudine Cmax: no effect
  Increase of lamivudine Cmin: 265%
OCT2; 2 nM MPP+, MDCK-OCT2
  Effect on basolateral-to-apical transport of [3H]-MPP+: Inhibition
OCT2; 2 nM MPP+, MDCK-OCT2 monolayers
  Effect on intracellular accumulation of [3H]-MPP+: significantly reduced
OCT2; 10 nM lamivudine, MDCK-OCT2
  Effect on intracellular accumulation of [3H]-lamivudine: significantly reduced
OCT2; 10 nM lamivudine, basal to apical, MDCK-OCT2
  Effect on transcellular transport of [3H]-lamivudine: significantly inhibited
